# Values quoted from earlier work, collected in patent US20250281392A1, “TOPICAL DELIVERY OF EPINEPHRINE AND PRODRUG COMPOSITIONS” (Aquestive Therapeutics, Inc., priority 2024, published 2025).
# Settings: cited from earlier work
smiles,measurement,value
CCOCCOCCO [Diethylene glycol monoethyl ether],Log P (octanol:water),−0.43
